Results from patent US20090030086A1, “ANTIMICROBIAL AGENTS” (priority 2005, published 2009).
In brackets after ≈: the same amount, converted by molar mass.

Test system: P. granulosum PPR-006
Assay: MIC assay
Format: cell-based
Description: The Propionibacterium spp organisms were cultured and maintained on Wilkins-Chalgren Anaerobe Medium (agar and broth) at pH 6.0; cultures were incubated anaerobically at 37° C. for 72 hours.
This is a standard international method for quantitatively assessing the antimicrobial activity of a compound in a liquid medium. The method used a 96-well microtitre plate, capable of holding about 200 μl of liquid per well. […] The culture media were as described above for the relevant test organisms.
The wells were inoculated with a liquid suspension of freshly grown micro-organism and incubated under the conditions described above. After incubation, the microtitre plate was examined visually (with the aid of a light box) for cloudiness in each well, which would indicate microbial growth. The MIC value was recorded as the lowest concentration of test compound required to inhibit microbial growth, i.e., the lowest concentration for which the liquid in the well remained clear.
The assays were conducted in duplicate and included both negative (culture medium only) and positive (culture medium, diluting solvent and inoculum) controls.
The activity of TBHQ was tested against other Propionibacterium spp strains, including some with known antibiotic resistance. MIC, MBC and DDA assays were carried out as described above for each of the strains.

Compound `CC(C)(C)c1cc(O)ccc1O` [TBHQ, 2-t-butyl hydroquinone] has an MIC of 7.8 µg/mL (≈ 46.9 µM).
